Test results as given in paper PMC5776679 (Journal of medicinal chemistry, 2016).
Read-outs that look alike come from different tables or passages of the source.

Legend:
HBV = settings: therapeutic index at the EC50, HepG2
HepG2 [1] = test: Cytotoxicity in uninfected HepG2 cells; settings: read-out: CC50 (HepG2), concentration required to reduce the viability of uninfected cells by 50%, triplicate
HIV-1 = settings: for EC50: read-out: EC50 (PBMCs) HIV-1
PBMCs = test: Cytotoxicity in uninfected PBMCs; settings: read-out: CC50 (PBMCs), concentration required to reduce the viability of uninfected cells by 50%, triplicate
Stability in PBS = settings: all examined media except human serum
[2] = clinical trials; cited from earlier work
HepG2 [3] = settings: human
in vitro = settings: human
[4] = rats; cited from earlier work
[5] = monkeys; cited from earlier work
[6] = phase I, preliminary data on Chimerix's website; cited from earlier work
[7] = therapeutic index at the EC50, PBMCs

Row | Compound | TI (CC50/EC50) HBV (HBV) | TI (CC50/EC50) HIV-1 (HIV-1) | EC50 (HIV-1) | also measured
1 | 2-(Decyldisulfanyl)ethyl (2-(Decylsulfinothioyl)ethyl) ((((R)-1-(6-Amino-9H-purin-9-yl)propan-2-yl)oxy)methyl)phosphonate [13a] | >1 | >287 | 0.349 µM | CC50 (HepG2 [1]): > 100 µM; CC50 (PBMCs): > 100 µM
2 | 2-(Dodecyldisulfanyl)ethyl (2-(Dodecylsulfinothioyl)ethyl) ((((R)-1-(6-Amino-9H-purin-9-yl)propan-2-yl)oxy)methyl)phosphonate [13b] | >1 | >85.0 | 1.18 µM | CC50 (HepG2 [1]): > 100 µM; CC50 (PBMCs): > 100 µM
3 | 2-(Hexadecyldisulfanyl)ethyl (2-(Hexadecylsulfinothioyl)ethyl) ((((R)-1-(6-Amino-9H-purin-9-yl)propan-2-yl)oxy)methyl)-phosphonate [13d] | >1 | 4.0 | 6.32 µM | CC50 (HepG2 [1]): > 25 µM; CC50 (PBMCs): > 25 µM
4 | 2-(Hexadecyldisulfanyl)ethyl Octyl ((((R)-1-(6-Amino-9H-purin-9-yl)propan-2-yl)oxy)methyl)phosphonate [compound 22] |  | >50 | 0.911 µM | 
5 | 2-(Octadecyldisulfanyl)ethyl (2-(Octadecylsulfinothioyl)ethyl) ((((R)-1-(6-Amino-9H-purin-9-yl)propan-2-yl)oxy)methyl)-phosphonate [13e] | >1 | >76 | 0.331 µM | CC50 (HepG2 [1]): > 25 µM; CC50 (PBMCs): > 25 µM
6 | 2-(Tetradecyldisulfanyl)ethyl (2-(Tetradecylsulfinothioyl)ethyl) ((((R)-1-(6-Amino-9H-purin-9-yl)propan-2-yl)oxy)methyl)-phosphonate [13c] | >1 | >529 | 0.189 µM | CC50 (HepG2 [1]): > 100 µM; CC50 (PBMCs): > 100 µM
7 | CCCCCCCCCCSSCCOP(=O)(O)CO[C@H](C)Cn1cnc2c(N)ncnc21.N [12a, 2-(Decyldisulfanyl)ethyl Hydrogen ((((R)-1-(6-Amino-9H-purin-9-yl)propan-2-yl)oxy)methyl)phosphonate] | >1 |  |  | TI (CC50/EC50) HIV-1 (HIV-1; [7]): >590
8 | CCCCCCCCCCCCSSCCOP(=O)(O)CO[C@H](C)Cn1cnc2c(N)ncnc21.N [12b, 2-(Dodecyldisulfanyl)ethyl Hydrogen ((((R)-1-(6-Amino-9H-purin-9-yl)propan-2-yl)oxy)methyl)phosphonate] | >30 |  |  | 
9 | CCCCCCCCCCCCCCSSCCOP(=O)(O)CO[C@H](C)Cn1cnc2c(N)ncnc21.N [12c, 2-(Tetradecyldisulfanyl)ethyl Hydrogen ((((R)-1-(6-Amino-9H-purin-9-yl)propan-2-yl)oxy)methyl)phosphonate] | >56 |  |  | TI (CC50/EC50) HIV-1 (HIV-1; [7]): 28000; fold stability increase over 12d (Stability in PBS): ~2 fold
10 | CCCCCCCCCCCCCCCCSSCCOP(=O)(O)CO[C@H](C)Cn1cnc2c(N)ncnc21.N [12d, 2-(Hexadecyldisulfanyl)ethyl Hydrogen ((((R)-1-(6-Amino-9H-purin-9-yl)propan-2-yl)oxy)methyl)phosphonate] | >1200 |  |  | 
11 | CCCCCCCCCCCCCCCCCCSSCCOP(=O)(O)CO[C@H](C)Cn1cnc2c(N)ncnc21.N [12e, 2-(Octadecyldisulfanyl)ethyl Hydrogen ((((R)-1-(6-Amino-9H-purin-9-yl)propan-2-yl)oxy)methyl)phosphonate] | >50 |  |  | 
12 | C[C@H](Cn1cnc2c(N)ncnc21)OCP(=O)(O)OCCSSCCO [DTE–TFV, 2-((2-Hydroxyethyl)disulfanyl)ethyl Hydrogen ((((R)-1-(6-Amino-9H-purin-9-yl)propan-2-yl)oxy)methyl)phosphonate] | >8.6 | >62.1 |  | 
13 | CC(C)OC(=O)[C@H](C)N[P@](=O)(CO[C@H](C)Cn1cnc2c(N)ncnc21)Oc1ccccc1 [TAF, tenofovir-alafenamide] |  |  |  | nephrotoxicity [2]: little to no nephrotoxicity
14 | CC(C)OC(=O)OCOP(=O)(CO[C@H](C)Cn1cnc2c(N)ncnc21)OCOC(=O)OC(C)C.O=C(O)/C=C/C(=O)O [TDF, tenofovir disoproxil fumarate] |  |  |  | CC50 (HepG2 [3]): 64.5 µM; CC50 (in vitro): 29.2 µM
15 | C[C@H](Cn1cnc2c(N)ncnc21)OCP(=O)(O)O [TFV, Tenofovir, reference compound] |  | >300 |  | 
16 | Nc1ncnc2c1ncn2CCOCP(=O)(O)O [adefovir] |  |  |  | bioavailability [4]: 8–11%; bioavailability [5]: < 1%
17 | CCCCCCCCCCCCCCCCOCCCOP(=O)(O)CO[C@H](C)Cn1cnc2c(N)ncnc21 [compound 1, hexadecyloxypropyl-tenofovir, reference compound] |  | >5000 |  | tolerability [6]: well-tolerated
18 | C[C@H](Cn1cnc2c(N)ncnc21)OCP(=O)(O)OCCS [compound 9, 2-Mercaptoethyl Hydrogen ((((R)-1-(6-Amino-9H-purin-9-yl)-propan-2yl)oxy)methyl)phosphonate] | >2.4 | >5.38 |  | 
